Series [1] has as its target T1, recombinant human MMP-13 (Homo sapiens, UniProt P45452).
T1 construct: made in house
The series is described as follows: In vitro metalloprotease inhibition, fluorogenic peptide substrate. Format: biochemical. Conditions: for IC50: APMA-activated enzyme, room temperature, pH 7.5, substrate 4 μM.
Description: (§1) MMP-13 was expressed in baculovirus as a proenzyme, and purified first over a heparin agarose column and then over a chelating zinc chloride column. The proenzyme was activated by APMA for use in the assay. […] The enzyme was also activated using APMA and was then purified over a hydroxamic acid column.

For series [2], the target named is T2, recombinant human MMP-1 (Homo sapiens, UniProt P03956).
T2 construct: made in house; host or cells: transfected HT-1080 cells (provided by Dr. Howard Welgus, Washington University)
T2 sequence (P03956 100-469): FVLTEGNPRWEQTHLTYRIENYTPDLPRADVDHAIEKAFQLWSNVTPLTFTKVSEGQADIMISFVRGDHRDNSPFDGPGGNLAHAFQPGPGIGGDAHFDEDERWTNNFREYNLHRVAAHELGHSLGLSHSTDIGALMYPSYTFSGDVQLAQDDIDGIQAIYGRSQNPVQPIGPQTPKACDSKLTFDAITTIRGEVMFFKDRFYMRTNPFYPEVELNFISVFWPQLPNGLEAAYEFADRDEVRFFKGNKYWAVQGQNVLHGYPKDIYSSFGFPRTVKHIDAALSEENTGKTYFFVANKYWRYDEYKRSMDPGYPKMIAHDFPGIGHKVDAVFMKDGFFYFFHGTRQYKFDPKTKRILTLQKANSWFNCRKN
Described as above. Format: biochemical. Conditions: for IC50: APMA-activated enzyme, room temperature, pH 7.5, substrate 4 μM.
Description: as §1

The test system of series [3] is neovascularization of the corneal stroma. The series is described as follows: In vivo angiogenesis assay (corneal micropocket). Conditions: mouse cornea, bFGF/sucralfate pellet, daily dosing, scored at day five; exemplary dose 50 mg/kg bid, po. The protocol: The study of angiogenesis depends on a reliable and reproducible model for the stimulation and inhibition of a neovascular response. The corneal micropocket assay provides such a model of angiogenesis in the cornea of a mouse.
In this assay, uniformly sized Hydron™ pellets containing bFGF and sucralfate were prepared and surgically implanted into the stroma mouse cornea adjacent to the temporal limbus. The pellets were formed by making a suspension of 20 μL sterile saline containing 10 μg recombinant bFGF, 10 mg of sucralfate and 10 μL of 12 percent Hydron™ in ethanol. The slurry was then deposited on a 10×10 mm piece of sterile nylon mesh. […]
Mice were dosed on a daily basis for the duration of the assay. […] At day five, the degree of angiogenic inhibition was scored by viewing the neovascular progression with a slit lamp microscope.
The mice were anesthetized and the studied eye was once again proptosed. The maximum vessel length of neovascularization, extending from the limbal vascular plexus toward the pellet was measured. In addition, the contiguous circumferential zone of neovascularization was measured as clock hours, where 30 degrees of arc equals one clock hour. The area of angiogenesis was calculated as follows. […]
The studied mice were thereafter compared to control mice and the difference in the area of neovascularization was recorded.

In series [4] the test system is solid tumor cancers (colorectal, pancreatic, ovarian, prostate). Conditions: patients, cited from earlier work.

Structures can show the parent of a compound that is named as a salt. Bounds are passed on as bounds.

Take `Cl.O=C(Nc1ccc(S(=O)(=O)CC2(C(=O)NO)CCNCC2)cc1)c1ccccc1` [Example 1, N-hydroxy-4-[[[4-(benzoylamino)phenyl]sulfonyl]methyl]-4-piperidinecarboxamide, monohydrochloride]: the IC50 in series [1] was 243 nM; in series [2], above 10000 nM. Further, the “activity against MMP-13 (in words)” value in series [1] (comment on Table 13) was “moderate activity”. Moreover, in series [2] (comment on Table 13), the “activity against MMP-1 (in words)” value is on record as “virtually unbound”.
With `O=C(NO)C1(CS(=O)(=O)c2ccc(Oc3ccccc3)cc2)CCN(CCc2ccccc2)CC1` [Example 2, N-Hydroxy-4-[[(4-phenoxyphenyl)sulfonyl]-methyl]-1-(2-phenylethyl)-4-piperidinecarboxamide, Monohydrochloride], the IC50 in series [2] was determined as 700 nM.
`COc1cccc(CN2CCC(CS(=O)(=O)c3ccc(Oc4ccccc4)cc3)(C(=O)NO)CC2)c1` [Example 3, N-Hydroxy-1-[(3-methoxyphenyl)methyl]-4-[[(4-phenoxyphenyl)sulfonyl]methyl]-4-piperidinecarboxamide, Monohydrochloride]: the IC50 in series [1] was 0.4 nM; in series [2] it was 330 nM.
For `C#CCN1CCC(CS(=O)(=O)c2ccc(Oc3ccccc3)cc2)(C(=O)NO)CC1` [Example 4, N-Hydroxy-4-[[(4-phenoxyphenyl)sulfonyl]-methyl]-1-(2-propynyl)-4-piperidinecarboxamide, Monohydrochloride] the same measures were 0.6 nM and 485 nM.
On to `CC(C)(C)OC(=O)N1CCC(CS(=O)(=O)c2ccc(Oc3ccccc3)cc2)(C(=O)NO)CC1` [Example 5, 1,1-Dimethylethyl Ester 4-[(Hydroxyamino)-carbonyl]-4-[[(4-phenoxyphenyl]sulfonyl]methyl]-1-piperidinecarboxylic Acid], for which the IC50 was 0.2 nM in series [1] and 475 nM in series [2].
On to `Cl.O=C(NO)C1(CS(=O)(=O)c2ccc(Oc3ccccc3)cc2)CCNCC1` [Example 6, N-Hydroxy-4-[[(4-phenoxyphenyl)sulfonyl]-methyl]-4-piperidinecarboxamide, Monohydrochloride], for which the values for the IC50 in series [1] and in series [2] were 8 nM and 2400 nM, respectively. The “inhibition of area of neovascularization versus control mice” value in series [3] is listed as 80.0%.
As for `C#CCN1CCC(CS(=O)(=O)c2ccc(Oc3ccc(C)c(C)c3)cc2)(C(=O)NO)CC1` [Example 7, N-Hydroxy-4-[[[4-(3,4-dimethylphenoxy)phenyl]sulfonyl]-methyl]-1-(2-propynyl)-4-piperidinecarboxamide, Monohydrochloride], the IC50 in series [1] was determined as 0.85 nM.
On the same count and under the same terms, the value for `C#CCN1CCCC1(CS(=O)(=O)c1ccc(Oc2ccccc2)cc1)C(=O)NO` (stereo not drawn) [Example 8, N-Hydroxy-2-[[(4-phenoxyphenyl)sulfonyl]-methyl]-1-(2-propynyl)-2-pyrrolidine Carboxamide, Monohydrochloride] was 1.3 nM.
In the case of `CNC(=O)[C@@H](NC(=O)[C@H](CC(C)C)[C@H](O)C(=O)NO)C(C)(C)C` [marimastat], the “effect on cancer-specific antigens used as surrogate markers for biological activity” value in series [4] (Phase I/II studies, meta analysis) is “dose-related reduction in the rise of cancer-specific antigens”. Further, the “most common drug-related toxicity” value in series [4] (clinical trials) is “musculoskeletal pain and stiffness”.

The record behind these values is US6638952B1, “Aromatic sulfonyl alpha-cycloamino hydroxamic acid compounds” (Pharmacia Corporation, priority 1997, dated 2003).
